Test results: publication PMC13242511, “Disrupting Notch signalling by a small molecule inhibiting dihydroorotate dehydrogenase activity” (Scientific Reports, 2026)

Assays:
Type in all cases: cell-based
[1] = target: γ-secretase complex (Homo sapiens, UniProt P49768); experiment: APP-C99 counter assay (GSI reporter assay); conditions: for 3p-DR in % of DMSO counter: APP-C99 counter assay
In short: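 Cells transfected with APP-C99 firefly luciferase reporter plus renilla normalization plasmid, seeded 24 h later onto compound plates and cultured 24 h. Dual luciferase read in triplicate per concentration; IC50 from variable-slope log(inhibitor) fit, with AUC also calculated from dose–response curves.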

[2] = tested on: Notch signalling; experiment: Notch reporter assay (12xCSL firefly luciferase / renilla luciferase, HEK293T Notch1ΔE reporter cell line clone #A1-11); conditions: 24 h, unit from Fig. 2 legend
[3] = tested on: Notch signalling; experiment: as above; set-up: Confirmation screen: unit not given here; conditions: for inhibitor ratio in % of DMSO in 3 point DR: 3-point DR confirmation screen, Notch reporter assay
In short: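 Compounds at two-fold concentration in 10 µl medium were brought to one-fold by adding 10 µl holding 4000 Notch reporter cells (clone #A1-11) per well of a 384-well plate. After 24 h, Promega dual-GLO firefly and renilla luciferase were read on a SpectraMaxi3. Dose-response curves were fitted with a log(inhibitor) vs. response variable-slope model.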

[4] = 10 µM, sheet conf vs counter 10 µM
[5] = 25 µM, sheet "conf vs counter 25 µM", same values given as % of DMSO in sheet "3p-DR in % of DMSO counter"
[6] = 10 µM, sheet conf vs counter 10 µM, same values as 3-point DR confirmation screen
[7] = 25 µM, Notch reporter 3-point dose-confirmation assay, sheet "conf vs counter 25 µM"

CC(=O)Nc1cccc(-c2ccc(Nc3cccc(N(C)C)c3)nc2)c1 [CBK036829]
3p-DR in % of DMSO counter ([1]; 10µM): 40.4 % of DMSO
Counter screen (Hek APP-C99) [1, 4]: 40.4
3p-DR in % of DMSO counter ([1]; 25µM): 38.9 % of DMSO
Counter screen (Hek APP-C99) [1, 5]: 38.9
3p-DR in % of DMSO counter ([1]; 1,25µM): 49.9 % of DMSO
Primary screen at 10 µM (Notch reporter signal) [2]: 22.4 % of DMSO
inhibitor ratio in % of DMSO in 3 point DR ([3]; 10µM): 28.3 % of DMSO
Confirmation screen [3, 6]: 28.3
inhibitor ratio in % of DMSO in 3 point DR ([3]; 25µM): 23.9 % of DMSO
Confirmation screen [3, 7]: 23.9
inhibitor ratio in % of DMSO in 3 point DR ([3]; 1,25µM): 30.6 % of DMSO

FC(F)(F)CCN1CCC2(CC1)NCCc1c2[nH]c2ccc(Cl)cc12 [CBK039331]
3p-DR in % of DMSO counter ([1]; 10µM): 111.0 % of DMSO
Counter screen (Hek APP-C99) [1, 4]: 111.0
3p-DR in % of DMSO counter ([1]; 25µM): 121.8 % of DMSO
Counter screen (Hek APP-C99) [1, 5]: 121.7
3p-DR in % of DMSO counter ([1]; 1,25µM): 81.3 % of DMSO
Primary screen at 10 µM (Notch reporter signal) [2]: 64.3 % of DMSO
inhibitor ratio in % of DMSO in 3 point DR ([3]; 10µM): 79.3 % of DMSO
Confirmation screen [3, 6]: 79.3
inhibitor ratio in % of DMSO in 3 point DR ([3]; 25µM): 73.3 % of DMSO
Confirmation screen [3, 7]: 73.3
inhibitor ratio in % of DMSO in 3 point DR ([3]; 1,25µM): 98.4 % of DMSO

Fc1cc(CN2CCC3(CC2)OCCc2c3[nH]c3ccc(Br)cc23)cc(F)c1F [CBK039943]
3p-DR in % of DMSO counter ([1]; 10µM): 118.1 % of DMSO
Counter screen (Hek APP-C99) [1, 4]: 118.1
3p-DR in % of DMSO counter ([1]; 25µM): 117.4 % of DMSO
Counter screen (Hek APP-C99) [1, 5]: 117.4
3p-DR in % of DMSO counter ([1]; 1,25µM): 92.8 % of DMSO
Primary screen at 10 µM (Notch reporter signal) [2]: 63.6 % of DMSO
inhibitor ratio in % of DMSO in 3 point DR ([3]; 10µM): 83.6 % of DMSO
Confirmation screen [3, 6]: 83.6
inhibitor ratio in % of DMSO in 3 point DR ([3]; 25µM): 75.1 % of DMSO
Confirmation screen [3, 7]: 75.1
inhibitor ratio in % of DMSO in 3 point DR ([3]; 1,25µM): 111.8 % of DMSO

CCC(C)(C)c1ccc(S(=O)(=O)Nc2ccc3ncsc3c2)cc1 [CBK043490]
3p-DR in % of DMSO counter ([1]; 10µM): 45.0 % of DMSO
Counter screen (Hek APP-C99) [1, 4]: 45.0
3p-DR in % of DMSO counter ([1]; 25µM): 59.5 % of DMSO
Counter screen (Hek APP-C99) [1, 5]: 59.5
3p-DR in % of DMSO counter ([1]; 1,25µM): 53.8 % of DMSO
Primary screen at 10 µM (Notch reporter signal) [2]: 46.9 % of DMSO
inhibitor ratio in % of DMSO in 3 point DR ([3]; 10µM): 33.5 % of DMSO
Confirmation screen [3, 6]: 33.5
inhibitor ratio in % of DMSO in 3 point DR ([3]; 25µM): 42.6 % of DMSO
Confirmation screen [3, 7]: 42.6
inhibitor ratio in % of DMSO in 3 point DR ([3]; 1,25µM): 42.1 % of DMSO

CCCC(=O)c1ccc(S(=O)(=O)N2CCN(Cc3csc(-c4ccccc4)n3)CC2)cc1 [CBK063161]
3p-DR in % of DMSO counter ([1]; 10µM): 124.1 % of DMSO
Counter screen (Hek APP-C99) [1, 4]: 124.1
3p-DR in % of DMSO counter ([1]; 25µM): 120.8 % of DMSO
Counter screen (Hek APP-C99) [1, 5]: 120.8
3p-DR in % of DMSO counter ([1]; 1,25µM): 122.5 % of DMSO
Primary screen at 10 µM (Notch reporter signal) [2]: 68.2 % of DMSO
inhibitor ratio in % of DMSO in 3 point DR ([3]; 10µM): 67.2 % of DMSO
Confirmation screen [3, 6]: 67.2
inhibitor ratio in % of DMSO in 3 point DR ([3]; 25µM): 76.4 % of DMSO
Confirmation screen [3, 7]: 76.4
inhibitor ratio in % of DMSO in 3 point DR ([3]; 1,25µM): 102.6 % of DMSO

Nc1ccc(Sc2nccnc2N2CCCC2)cc1 [CBK089520]
3p-DR in % of DMSO counter ([1]; 10µM): 34.9 % of DMSO
Counter screen (Hek APP-C99) [1, 4]: 34.9
3p-DR in % of DMSO counter ([1]; 25µM): 11.6 % of DMSO
Counter screen (Hek APP-C99) [1, 5]: 11.6
3p-DR in % of DMSO counter ([1]; 1,25µM): 115.4 % of DMSO
Primary screen at 10 µM (Notch reporter signal) [2]: 43.1 % of DMSO
inhibitor ratio in % of DMSO in 3 point DR ([3]; 10µM): 42.1 % of DMSO
Confirmation screen [3, 6]: 42.1
inhibitor ratio in % of DMSO in 3 point DR ([3]; 25µM): 27.1 % of DMSO
Confirmation screen [3, 7]: 27.1
inhibitor ratio in % of DMSO in 3 point DR ([3]; 1,25µM): 103.0 % of DMSO

COc1cc(Nc2cc(-c3ccccc3N(C)C)ncn2)cc(OC)c1OC [CBK090702]
3p-DR in % of DMSO counter ([1]; 10µM): 148.1 % of DMSO
Counter screen (Hek APP-C99) [1, 4]: 148.1
3p-DR in % of DMSO counter ([1]; 25µM): 225.5 % of DMSO
Counter screen (Hek APP-C99) [1, 5]: 225.5
3p-DR in % of DMSO counter ([1]; 1,25µM): 124.5 % of DMSO
Primary screen at 10 µM (Notch reporter signal) [2]: 68.4 % of DMSO
inhibitor ratio in % of DMSO in 3 point DR ([3]; 10µM): 85.7 % of DMSO
Confirmation screen [3, 6]: 85.7
inhibitor ratio in % of DMSO in 3 point DR ([3]; 25µM): 55.7 % of DMSO
Confirmation screen [3, 7]: 55.7
inhibitor ratio in % of DMSO in 3 point DR ([3]; 1,25µM): 97.2 % of DMSO

CC(C)Nc1cncc(OCc2ccc(Cl)c(Cl)c2)n1 [CBK115653]
3p-DR in % of DMSO counter ([1]; 10µM): 31.9 % of DMSO
Counter screen (Hek APP-C99) [1, 4]: 31.8
3p-DR in % of DMSO counter ([1]; 25µM): 19.5 % of DMSO
Counter screen (Hek APP-C99) [1, 5]: 19.5
3p-DR in % of DMSO counter ([1]; 1,25µM): 104.9 % of DMSO
Primary screen at 10 µM (Notch reporter signal) [2]: 41.7 % of DMSO
inhibitor ratio in % of DMSO in 3 point DR ([3]; 10µM): 44.3 % of DMSO
Confirmation screen [3, 6]: 44.3
inhibitor ratio in % of DMSO in 3 point DR ([3]; 25µM): 30.6 % of DMSO
Confirmation screen [3, 7]: 30.6
inhibitor ratio in % of DMSO in 3 point DR ([3]; 1,25µM): 102.4 % of DMSO
